Source: PubChem BioAssay AID248 (DTP/NCI, 2004)
Several values for one entry are separate records, joined by “and”; a condition that tells them apart may be missing. Identical values can stand only once. Inconclusive results and toxic doses are left out.

System: L1210 leukemia ip in BDF1 mice, survival T/C
Assay: NCI In Vivo Anticancer Drug Screen. Data for tumor model L1210 Leukemia (intraperitoneal) in B6D2F1 (BDF1) mice
Details: endpoint: mean survival time, higher = longer survival
In short: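 Transplantable tumor model; survival measured in treated vs vehicle control mice. Value = treated/control.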

[1] = dose: 100.0 mg/kg/injection, schedule: Q04DX003 (ip), vehicle: saline
[2] = dose: 200.0 mg/kg/injection, schedule: Q04DX003 (ip), vehicle: saline
[3] = dose: 400.0 mg/kg/injection, schedule: Q04DX003 (ip), vehicle: saline

CCCCNC(=O)c1cc(NC(=O)Nc2ccc(C3=NCCN3)cc2)cc(NC(=O)Nc2ccc(C3=NCCN3)cc2)c1
T/C (dose: 8.0 mg/kg/injection, schedule: Q01DX Z (ip), vehicle: carboxymethylcellulose (CMC)): 122 % of control
T/C (dose: 16.0 mg/kg/injection, schedule: Q01DX Z (ip), vehicle: carboxymethylcellulose (CMC)): 117 % of control
T/C (dose: 62.0 mg/kg/injection, schedule: Q01DX Z (ip), vehicle: carboxymethylcellulose (CMC)): 122 % of control
T/C (dose: 125.0 mg/kg/injection, schedule: Q01DX Z (ip), vehicle: carboxymethylcellulose (CMC)): 122 % of control
T/C (dose: 250.0 mg/kg/injection, schedule: Q01DX Z (ip), vehicle: carboxymethylcellulose (CMC)): 110 % of control

CCSC1C(OC(C)=O)C(C(CI)OC(C)=O)OC1n1cc(C)c(=O)[nH]c1=O (configuration not stated)
T/C (dose: 100.0 mg/kg/injection, schedule: Q01DX005 (ip), vehicle: saline): 93 % of control
T/C (dose: 200.0 mg/kg/injection, schedule: Q01DX005 (ip), vehicle: saline): 98 % of control

Nc1ncc(N)c(N)n1
T/C (dose: 21.0 mg/kg/injection, schedule: Q01DX Z (ip), vehicle: saline): 101 % of control
T/C (dose: 25.0 mg/kg/injection, schedule: Q01DX Z (ip), vehicle: carboxymethylcellulose (CMC)): 109 % of control
T/C (dose: 31.0 mg/kg/injection, schedule: Q01DX Z (ip), vehicle: saline): 106 % of control
T/C (dose: 47.0 mg/kg/injection, schedule: Q01DX Z (ip), vehicle: saline): 121 % of control
T/C (dose: 50.0 mg/kg/injection, schedule: Q01DX001 (ip), vehicle: saline): 106 % of control
T/C (dose: 100.0 mg/kg/injection, schedule: Q01DX001 (ip), vehicle: saline): 103 % of control
T/C [1]: 112 % of control
T/C (dose: 117.0 mg/kg/injection, schedule: Q01DX009 (ip), vehicle: saline with Tween-80): 116 % of control
T/C (dose: 125.0 mg/kg/injection, schedule: Q01DX001 (ip), vehicle: carboxymethylcellulose (CMC)): 101 % of control and 118 % of control
T/C (dose: 125.0 mg/kg/injection, schedule: Q## X001 (ip), vehicle: carboxymethylcellulose (CMC)): 110 % of control
T/C (dose: 200.0 mg/kg/injection, schedule: Q01DX001 (ip), vehicle: saline): 103 % of control
T/C [2]: 117 % of control
T/C (dose: 240.0 mg/kg/injection, schedule: Q04DX003 (ip), vehicle: saline): 111 % of control
T/C (dose: 250.0 mg/kg/injection, schedule: Q01DX001 (ip), vehicle: carboxymethylcellulose (CMC)): 102 % of control and 108 % of control
T/C (dose: 250.0 mg/kg/injection, schedule: Q## X001 (ip), vehicle: carboxymethylcellulose (CMC)): 111 % of control
T/C (dose: 360.0 mg/kg/injection, schedule: Q01DX Z (ip), vehicle: carboxymethylcellulose (CMC)): 159 % of control
T/C (dose: 360.0 mg/kg/injection, schedule: Q04DX003 (ip), vehicle: saline): 108 % of control
T/C (dose: 400.0 mg/kg/injection, schedule: Q01DX001 (ip), vehicle: saline): 97 % of control
T/C [3]: 118 % of control
T/C (dose: 500.0 mg/kg/injection, schedule: Q01DX001 (ip), vehicle: carboxymethylcellulose (CMC)): 98 % of control and 117 % of control
T/C (dose: 500.0 mg/kg/injection, schedule: Q01DX Z (ip), vehicle: carboxymethylcellulose (CMC)): 160 % of control
T/C (dose: 500.0 mg/kg/injection, schedule: Q## X001 (ip), vehicle: carboxymethylcellulose (CMC)): 105 % of control
T/C (dose: 810.0 mg/kg/injection, schedule: Q01DX Z (ip), vehicle: saline): 86 % of control
T/C (dose: 1000.0 mg/kg/injection, schedule: Q01DX001 (ip), vehicle: carboxymethylcellulose (CMC)): 102 % of control and 112 % of control
T/C (dose: 1000.0 mg/kg/injection, schedule: Q## X001 (ip), vehicle: carboxymethylcellulose (CMC)): 98 % of control

CCOC(=O)/C(=C\c1cccc2ccccc12)c1ccncc1
T/C (dose: 100.0 mg/kg/injection, schedule: Q01DX001 (ip), vehicle: saline with Tween-80): 89 % of control
T/C (dose: 100.0 mg/kg/injection, schedule: Q01DX009 (ip), vehicle: saline with Tween-80): 98 % of control
T/C (dose: 200.0 mg/kg/injection, schedule: Q01DX001 (ip), vehicle: saline with Tween-80): 93 % of control
T/C (dose: 200.0 mg/kg/injection, schedule: Q01DX009 (ip), vehicle: saline with Tween-80): 100 % of control
T/C (dose: 400.0 mg/kg/injection, schedule: Q01DX001 (ip), vehicle: saline with Tween-80): 96 % of control

Cc1cnc2c(=N)n(C(=O)C(F)(F)F)n(C)c2n1
T/C (dose: 100.0 mg/kg/injection, schedule: Q01DX009 (ip), vehicle: Klucel (hydroxypropylcellulose) (HPC)): 104 % of control
T/C [1]: 94 % of control
T/C (dose: 200.0 mg/kg/injection, schedule: Q01DX009 (ip), vehicle: Klucel (hydroxypropylcellulose) (HPC)): 102 % of control
T/C [2]: 110 % of control
T/C [3]: 95 % of control
